Entries after “also recorded” stand apart in the source; their conditions may differ. Read-outs that look alike come from different tables or passages of the source. Ends that are not written are not given here.
Legend:
[1] = Solubility of peptideX2-13 modifications in aqueous buffer; assay type: physicochemical; details: for solubility, comparative: modification (10) vs peptideX2-13, modification (11) vs (10), reversed core sequence
Experimental: Various modifications of peptideX2-13 were tested for solubility (see Table 2).

[2] = test system: collagen-induced arthritis in Lewis rats; assay: Collagen-induced arthritis in Lewis rats, daily arthritis index; assay type: in vivo, Lewis rat; details: positive control, 10 mg/kg/day
Experimental: A. Collagen-Induced Lewis Rat Model of Rheumatoid Arthritis (RA)-PeptideX2 (SEQ ID NO: 1). The Lewis rat system is an art-accepted in vivo animal model of collagen-induced rheumatoid arthritis. Lewis rats obtained from a commercial laboratory supply vendor were maintained during a quarantine period under standard animal care conditions and found to be free of any clinical signs of disease or distress. Bovine type II collagen (10 mg, Chondrex, Inc., Redmond, WA) was dissolved in 2.5 ml 0.1M acetic acid and stirred overnight at 4-8° C. in the dark, and then one ml of this collagen solution was emulsified in one ml of incomplete Freund's adjuvant (ICFA, Sigma, St. Louis, MO) on an ice bath. On day zero, each of five rats was injected with 0.2 ml of collagen/ICFA emulsion at two sites and then observed for the next 30 days with the arthritis index (AI) calculated daily using the 16-point scoring method of Bevaart et al. (2010 Meths. Mol. Biol. 602:181: 0 points, no joint swelling or edema; 1 point, slight edema and erythema limited to foot and/or ankle; 2 points, edema and erythema in the toes and most ankle joints; 3 points, severe edema and erythema in the paw below the ankle joint; 4 points, edema and erythema of all four paws including the ankle joint). […]
6 Lewis rats (ENVIGO, female, 190-210g) were received, individually examined, and housed. […] Rat weights were recorded daily. […]

[3] = first renal transplantations, cited from earlier work
[4] = Tolerability / adverse effects of intravenous dosing in the Lewis rat RA model; assay type: in vivo; details: for adverse effects: 500 μg/ml, intravenous
Experimental: On day 15, the rats were divided into treatment groups and were dosed intravenously on a daily basis for the next 15 days (except as noted) with the pentide YLQMN (SEQ ID NO: 5)-containing PeptideX2 (SEQ ID NO: 1) to achieve final circulating concentrations of PeptideX2 peptide as follows: 0 μg/ml (vehicle control: 0.2% acetic acid-Dulbecco's phosphate buffered saline (PBS-D), pH 6.0); 100 μg/ml vehicle; 200 μg/ml vehicle, and 500 μg/ml vehicle per rat/per day. As a positive control for anti-inflammatory activity, daily dosing of a control rat with prednisolone at 10 mg/kg/day was used. The arthritis index was calculated daily for each viable rat throughout the 30-day study.
B. Stability, aggregation, and toxicity of the pentide YLQMN (SEQ ID NO: 5)-containing polypeptides PeptideX2 (SEQ ID NO: 1) and G2-PeptideX2 (SEQ ID NO: 2).
Eleven Lewis rats were prepared using the collagen induced arthritis protocol. At day 15 thru day 30, three rats were given daily dosing of PeptideX2-13 (SEQ ID NO: 3) at 100 μg/ml, three rats were given daily dosing of PeptideX2-13 (SEQ ID NO: 3) at 250 μg/ml, and three rats were given daily dosing of PeptideX2-13 (SEQ ID NO: 3) at 500 μg/ml; as a positive control group, two rats were given prednisolone at 10 mg/kg/day.
The rats were weighed, scored for signs of arthritis and assigned to various treatment groups of one or more rats to each group. For the prednisolone control group, 200.85 mg prednisolone 21-hemisuccinate sodium salt (Sigma, Cat. P4153) was dissolved in 15 ml de-ionized water to prepare a 10 mg/ml solution which was stored at 4-8° C. when not in use. Rats in the study groups were dosed daily from day 15 through day 30 according to the formula for which a rat weighing (g)×64 ml/1000 g (represents the total blood volume) multiplied by the test product dose/test product concentration to determine the total volume to be injected into the animal per day to achieve that desired estimated blood concentration. Rats were weighed and scored daily during the treatment phase of the experiment and the results recorded and reported.

human TLR2 [5] = target: T1, human TLR2 (human, UniProt O60603 21-784); assay: NF-κB SEAP reporter in HEK293 cells expressing human TLR2, 200 µg/ml (FIG. 6); binding inferred from reporter activity
T1 construct: whole, on cells; Expressed in HEK293 NF-κB/SEAP reporter cells; also called hTLR2; toll-like receptor 2
T1 sequence (O60603 21-784): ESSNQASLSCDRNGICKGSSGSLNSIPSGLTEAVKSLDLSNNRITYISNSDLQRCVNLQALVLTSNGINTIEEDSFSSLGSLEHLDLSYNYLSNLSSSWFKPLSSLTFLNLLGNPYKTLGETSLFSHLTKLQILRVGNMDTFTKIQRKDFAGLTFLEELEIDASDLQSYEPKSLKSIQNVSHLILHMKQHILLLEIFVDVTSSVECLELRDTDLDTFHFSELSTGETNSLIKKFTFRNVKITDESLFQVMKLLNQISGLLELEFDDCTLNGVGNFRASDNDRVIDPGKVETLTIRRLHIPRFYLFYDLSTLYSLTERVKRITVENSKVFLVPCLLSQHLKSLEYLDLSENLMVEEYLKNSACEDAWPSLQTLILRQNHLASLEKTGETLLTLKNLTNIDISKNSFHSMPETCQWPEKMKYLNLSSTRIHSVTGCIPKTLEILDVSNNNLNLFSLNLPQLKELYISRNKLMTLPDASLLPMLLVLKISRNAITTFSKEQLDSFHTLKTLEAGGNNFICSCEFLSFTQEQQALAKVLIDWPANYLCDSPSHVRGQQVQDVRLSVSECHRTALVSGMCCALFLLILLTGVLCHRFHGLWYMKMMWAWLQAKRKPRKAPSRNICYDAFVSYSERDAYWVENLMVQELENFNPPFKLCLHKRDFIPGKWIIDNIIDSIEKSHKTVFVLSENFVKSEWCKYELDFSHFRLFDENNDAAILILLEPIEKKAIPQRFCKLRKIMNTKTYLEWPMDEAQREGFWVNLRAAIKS
Experimental: Human Toll-like receptor ligand screening was performed using test samples containing a peptide of interest at 200 μg/ml. The general procedure consisted of testing for NF-κB activation in HEK293 cells expressing a given TLR. The samples were tested against seven different human TLRs (TLR2, 3, 4, 5, 7, 8, 9). The media added to the wells were designed for the detection of NF-κB induced SEAP (secreted embryonic alkaline phosphatase) expression. After 16-24 hours of incubation, the optical density (OD) was read at 650 nm on a Molecular Devices SpectraMax 340PC absorbance detector.

human TLR2 [6] = target: T1, human TLR2; assay: NF-κB SEAP reporter on human TLR panel; binding inferred from reporter activity
[7] = buffer (0.2% acetic acid, 0.375M Hepes, 0.375% glycerol, pH 7), no concentration stated

GKAYLQMNAKG [SEQ ID NO: 13]
Solubility ([1]; buffer, at 2 mg/ml): Soluble in buffer

GRSSANMQLYASSRG [modification (11)]
Solubility ([1]; at 5 mg/ml concentration): Insoluble at | solubility, comparative [1]: no significant difference

C[C@]12C=CC(=O)C=C1CC[C@@H]1[C@@H]2[C@@H](O)C[C@@]2(C)[C@H]1CC[C@]2(O)C(=O)CO [prednisolone]
arthritis index [2]: potent and sustained reduction of the arthritis index; also recorded: decreased

Cn1cnc([N+](=O)[O-])c1Sc1ncnc2nc[nH]c12 [AZA, azathioprine]
graft survival rate ([3]; 5 years post-transplant): 56% | graft survival rate ([3]; 10 years post-transplant): 46%

KSIAYLQMNSLK [PeptideX2, reference compound]
adverse effects [4]: went into respiratory distress and died immediately | outcome (death) ([4]; single IV dose to achieve 300 μg/ml, thirty-eight minutes after injection): went into convulsions again and died

YLQMN [pentide, YLQMN]
adverse effects [4]: No adverse effects

GKYLQMNKG [SEQ ID NO: 22]
Solubility ([1]; buffer, at 2 mg/ml): Soluble in buffer

GRAAYLQMNAARG [K2R/K12R-substituted PeptideX2-13]
Solubility ([1]; buffer, at 2 mg/ml): Soluble in buffer

GKAAYLQMNAAKG [PeptideX2-13]
tolerability in animal model compared with PeptideX2 ([4]; summary statement): tolerated and not toxic at a certain higher concentrations than was the case for previously described PeptideX2 | Solubility [1, 7]: Soluble in buffer

GRSSAYLQMNASSRG [modification (10)]
Solubility ([1]; at 5 mg/ml concentration): Insoluble at | solubility, comparative [1]: less solubility compared to peptideX2-13

C=CC[C@@H]1/C=C(\C)C[C@H](C)C[C@H](OC)[C@H]2O[C@@](O)(C(=O)C(=O)N3CCCC[C@H]3C(=O)O[C@H](/C(C)=C/[C@@H]3CC[C@@H](O)[C@H](OC)C3)[C@H](C)[C@@H](O)CC1=O)[C@H](C)C[C@@H]2OC [TAC, tacrolimus]
graft survival rate ([3]; 5 years post-transplant): 77% | graft survival rate ([3]; 10 years post-transplant): 60%

GKAANMQLYAAKG [SEQ ID NO: 17]
Solubility ([1]; buffer, at 2 mg/ml): Soluble in buffer

GYLQMNG [modification (7), GYLQMNG]
Solubility [1, 7]: insoluble in aqueous buffer

PKAAYLQMNAAKP [SEQ ID NO: 12]
Solubility ([1]; buffer, at 2 mg/ml): Soluble in buffer

B1: reverse modified peptideX2 (NMQLY) (peptide)
peptide: NMQLY
notes: Printed as NMQLY; also called reverse core; reverse-peptideX2
binding result (human TLR2 [5]): binds

KSIAYLQMNSLK [PeptideX2 (KSIAYLQMNSLK)]
binding result (human TLR2 [6]): binds

Source: patent US20250382330A1, “IMMUNOLOGICALLY ACTIVE POLYPEPTIDE” (CDRES PHARMA LLC, priority 2022, published 2025)
